Patent US12584903B2, “Cellular-based method for determining the potency of defibrotide” (GENTIUM S.R.L., priority 2014, dated 2026)

Key:
[1] = tested on: SK-HEP-1 cells; assay: Cell protection assay: viability of SK-HEP-1 cells incubated with fludarabine, CCK-8 assay, 4-parameter logistic potency analysis; details: fludarabine 10 μg/ml, 72 hours
Protocol: The human liver sinusoidal endothelial cell line SK-HEP-1 was obtained from the American Type Culture Collection (ATCC) and cultured in complete EMEM medium in a humidified cell incubator containing 5% CO2 at 37° C. using gelatin-coated tissue culture flasks. The cells were sub-cultured by trypsin mediated detachment every 2-3 days following the instructions provided by the ATCC. Cells were serially transferred into culture flasks when the culture was 80-90% confluent and used for the protection assay between passages +3 to +10. That is, 3 to 10 passages beyond the characterised passage number of the cells received from the ATCC.
A suspension of SK-HEP-1 for use in the cell protection assay was prepared and counted. […] Cells were counted using a Neubauer counting chamber in the presence of trypan blue to assess the percent viability of the cultures.
Fifty μl of the cell suspensions, or medium alone for blanks, prepared at the concentrations described above was placed in wells of a poly-D-lysine coated 96-well microtiter plate. […] Following addition of the solution to the wells, the plates were returned to the incubator and cell viability was assessed after 24, 48 or 72 hr. […]
After the specified period of incubation, cell viability in each well was measured using the CCK-8 cell counting kit (Sigma Aldrich, Milan, Italy) following the manufacturer's instructions. […]

[2] = tested on: HMEC-1 cells; assay: Cell protection assay: viability of HMEC-1 cells incubated with fludarabine, MTT assay; type: cell-based, human; details: 72 hours
Protocol: The MTT assay is based on the cleavage of tetrazolium salts by mitochondrial dehydrogenase in viable cells leading to the production of an insoluble formazan dye. MTT dye, 10 μl of a 2 mg/ml solution in D-PBS, was added to each well and then the plates were incubated for 3 hours. Plates were then centrifuged and each well aspirated. The dye was solubilised with 200 μl of a mixture DMSO/Ethanol (1:1) and absorbance in the wells was read at 570-590 nm on a microplate reader. A blank well containing only media and cytotoxic drug (fludarabine or doxorubicin) was also run as a control in all experiments.
HMEC-1 cells were cultivated according to the above mentioned procedure. A cell density of 500,000 cells/ml was used for the assay. […] Defibrotide was added to the microplate well at a concentration of 100, 10 or 1 μg/ml. Four replicates of each condition were performed. The viability of the HMEC cells was assessed after 72 hours with the MTT assay described above.
HMEC-1 cells were cultivated according to the above mentioned procedure. A cell density of about 500,000 cells/ml was used for the experiment. The cytotoxic agent was fludarabine at a concentration of 50 μg/ml. Synthetic oligonucleotides (Adenine-Cytosine (AC) of about 16 kDa or Adenine-Cytosine-Guanine-Thymine (ACGT) of about 17 kDa) or defibrotide were added to each well at varying concentrations. Specifically, the AC oligonucleotides were added to each well at a concentration of 1, 10, 100 or […], whereas the ACGT oligonucleotides were added to each well at a concentration of 12.5, 25 or 50 μg/ml. […] Each treatment condition was performed in triplicate. The viability was assessed with the MTT assay after 24, 48 and 72 hours.

[3] = tested on: SK-HEP-1 cells; assay: Cell protection assay: viability of SK-HEP-1 cells incubated with doxorubicin, CCK-8 assay; type: cell-based, human; details: doxorubicin 0.1 μg/ml, defibrotide 50 μg/ml or greater, 72 hours
Protocol: The cytotoxic agent was doxorubicin at a concentration of 0.1 μg/ml. Defibrotide was added to the microplate well at a concentration of 100, 50, 20, 10, 5 or 1 μg/ml. Three replicates of each condition were performed. The viability was assessed after 72 hours with the CCK-8 assay kit as described above. […] (FIG. 2).

Row | Compound | protection from fludarabine-induced cytotoxicity (in words) ([1]; ACGT or glutathione 1.25-80 μg/ml, tPA 10-320 IU/ml) | protection effect against fludarabine-induced cytotoxicity ([2]; fludarabine 10 μg/ml, defibrotide 100 μg/ml) | protection from fludarabine-induced cytotoxicity (in words) ([2]; fludarabine 10 μg/ml, defibrotide 100, 10 or 1 μg/ml) | protection from fludarabine-induced cytotoxicity (in words) ([2]; fludarabine 50 μg/ml, AC 1-500 μg/ml, ACGT 12.5-50 μg/ml, defibrotide 5-100 μg/ml) | protection from doxorubicin-induced cytotoxicity (in words) [3] | cells surviving ([1]; defibrotide 40 μg/ml or greater)
1 | N[C@@H](CCC(=O)N[C@@H](CS)C(=O)NCC(=O)O)C(=O)O [glutathione, Glutathione] | No protection | – | – | – | – | –
2 | defibrotide | – | more than 50% | protected the cells from fludarabine-induced cytotoxicity in a dose-dependent manner | dose-dependent protection | significantly protected | greater than 80%
